In US20240002374A1, “5-MEMBERED HETEROARYLAMINOSULFONAMIDES FOR TREATING CONDITIONS MEDIATED BY DEFICIENT CFTR ACTIVITY” (Genzyme Corporation, priority 2019, published 2024):

target: T1, CFTR (primary human bronchial epithelial cells from a ΔF508 homozygous CF donor, CF-HBE cells) (Homo sapiens, UniProt P13569, DEL508-508); assay: TECC24 recording of CFTR-mediated transepithelial chloride transport (TECC24 AUC fold over DMSO @ 3 μM); type: cell-based; conditions: 3 uM test agent; CF-HBE cells (ΔF508 homozygous) incubated 48 h; ratio of test agent AUC of forskolin-stimulated IEQ to vehicle (DMSO) AUC
T1 construct: Primary human bronchial epithelial cells from a ΔF508 homozygous CF donor; host or cells: primary human bronchial epithelial cells (CF-HBE) from a ΔF508 homozygous CF donor
Protocol: Example 510: TECC24 AUC Fold Over DMSO @ 3 μM
The effects of a test agent on CFTR-mediated transepithelial chloride transport was measured using TECC24 recording analysis. Test agents were solubilized in DMSO. Solubilized test agents were mixed with incubation medium containing DMEM/F12, Ultroser G (2%; Crescent Chemical, catalog #67042), Hyclone Fetal Clone H (2%; GE Healthcare, catalog #SH30066.02), bovine brain extract (0.25%; Lonza, catalog #CC-4098), insulin (2.5 μg/mL), IL-13 (10 ng/mL), hydrocortisone (20 nM), transferrin (2.5 μg/mL), triiodothyronine (500 nM), ethanolamine (250 nM), epinephrine (1.5 μM), phosphoethanolamine (250 nM), and retinoic acid (10 nM). Primary human bronchial epithelial cells from a ΔF508 homozygous CF donor (CF-HBE cells; from University of North Carolina Cystic Fibrosis Tissue Procurement Center), grown on Transwell HTS 24-well cell culture inserts (Costar, catalog #3378), were exposed to test agents or controls dissolved in incubation medium. The CF-HBE cells were cultured at 36.5° C. for 48 h before TECC24 recordings were performed in the presence or absence of test agent, a positive control or vehicle (DMSO).
Following incubation, the transwell cell culture inserts containing the test agent or control-treated CF-HBE cells were loaded onto a TECC24 apparatus (TECC v7 or MTECC v2; EP Design) to record the transepithelial voltage (VT) and resistance (TEER) using 4 AgCl electrodes per well configured in current-clamp mode. The apical and basolateral bath solutions both contained (in mM) 140 NaCl, 5 KCl, 2 CaCl2), 1 MgCl2, 10 Hepes, and 10 glucose (adjusted to pH 7.4 with NaOH) […]. To inhibit basal Na+ absorption, the ENaC inhibitor benzamil (10 μM) was added to the bath. Then, the adenylate cyclase activator, forskolin (10 μM), was added to the bath to activate CFTR. The forskolin-stimulated Cl− transport was halted by addition of bumetanide (20 μM), an inhibitor of the basolateral chloride co-transporter NKCC1, to the bath to confirm that the detected signal was chloride dependent. VT and TEER recordings were digitally acquired at routine intervals using TECC or MTECC software (EP Design). VT and TEER were transformed into equivalent transepithelial Cl− current (IEQ), and the Area Under the Curve (AUC) of the IEQ time course between forskolin and bumetanide addition is generated using Excel (Microsoft). Efficacy is expressed as the ratio of the test agent AUC divided by vehicle AUC. EC50s based on AUC are generated using the non-linear regression log(agonist) vs. response function in Prism software (GraphPad) with Hill Slope fixed=1.
If a test agent increased the AUC of the forskolin-stimulated IEQ relative to vehicle in CF-HBE cells, and this increase was inhibited by bumetanide, then the test agent was considered a CFTR corrector.

T1 sequence (P13569 with tags, fused parts or gaps DEL508-508): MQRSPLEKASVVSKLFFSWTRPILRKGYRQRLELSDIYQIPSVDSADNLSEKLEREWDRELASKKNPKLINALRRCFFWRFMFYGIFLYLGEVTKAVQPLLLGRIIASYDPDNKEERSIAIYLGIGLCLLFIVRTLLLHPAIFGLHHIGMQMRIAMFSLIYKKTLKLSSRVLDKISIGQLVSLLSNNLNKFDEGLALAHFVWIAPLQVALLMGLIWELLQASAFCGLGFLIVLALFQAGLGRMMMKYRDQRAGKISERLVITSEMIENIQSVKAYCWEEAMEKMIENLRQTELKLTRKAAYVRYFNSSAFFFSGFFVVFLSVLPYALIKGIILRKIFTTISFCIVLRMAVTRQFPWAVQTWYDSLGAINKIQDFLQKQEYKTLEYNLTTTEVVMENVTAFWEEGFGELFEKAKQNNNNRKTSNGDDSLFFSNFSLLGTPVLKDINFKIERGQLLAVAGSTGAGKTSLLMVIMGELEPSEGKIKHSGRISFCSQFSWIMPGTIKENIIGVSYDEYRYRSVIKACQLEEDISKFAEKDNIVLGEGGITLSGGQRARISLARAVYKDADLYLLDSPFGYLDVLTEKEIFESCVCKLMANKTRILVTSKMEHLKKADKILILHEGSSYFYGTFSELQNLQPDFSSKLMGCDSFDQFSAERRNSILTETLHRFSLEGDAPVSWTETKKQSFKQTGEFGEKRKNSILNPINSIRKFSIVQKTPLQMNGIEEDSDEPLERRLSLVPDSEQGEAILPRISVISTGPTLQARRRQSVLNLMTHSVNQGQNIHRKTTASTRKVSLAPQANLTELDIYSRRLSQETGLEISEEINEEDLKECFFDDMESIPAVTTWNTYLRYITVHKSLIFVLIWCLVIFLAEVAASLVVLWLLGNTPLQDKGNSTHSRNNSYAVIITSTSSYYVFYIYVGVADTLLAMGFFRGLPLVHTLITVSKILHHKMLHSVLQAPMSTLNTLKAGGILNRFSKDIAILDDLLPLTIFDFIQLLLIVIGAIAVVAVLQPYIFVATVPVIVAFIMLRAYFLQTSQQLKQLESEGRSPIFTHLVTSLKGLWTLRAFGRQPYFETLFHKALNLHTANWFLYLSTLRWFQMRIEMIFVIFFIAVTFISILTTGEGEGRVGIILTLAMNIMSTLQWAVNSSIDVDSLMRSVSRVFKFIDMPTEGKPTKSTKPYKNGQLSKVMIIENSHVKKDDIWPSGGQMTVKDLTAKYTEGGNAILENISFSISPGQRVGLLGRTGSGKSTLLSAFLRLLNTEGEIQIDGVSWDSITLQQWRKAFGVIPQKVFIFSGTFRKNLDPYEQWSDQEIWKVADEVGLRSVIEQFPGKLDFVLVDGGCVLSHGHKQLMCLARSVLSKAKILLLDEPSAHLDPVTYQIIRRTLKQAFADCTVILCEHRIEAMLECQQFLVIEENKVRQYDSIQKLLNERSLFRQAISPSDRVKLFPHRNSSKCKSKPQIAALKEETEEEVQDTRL

For Cc1nn(C)cc1S(=O)(=O)Nc1nc(-c2ccccc2C(F)(F)F)c(-c2cccc([C@@H]3CC[C@@H](OC(F)(F)F)C3)c2)s1 (single isomer, unassigned) [Example 45B2], which “TECC AUC vs. DMSO @ 3 uM” value is on record?
Its value is “C (“C” refers to AUC < 2)”.

How did the “TECC AUC vs. DMSO @ 3 uM” value turn out when Cc1nn(C)cc1S(=O)(=O)Nc1nc(-c2ccccc2C(F)(F)F)c(-c2cccc([C@@H]3CC[C@H](OC(F)(F)F)C3)c2)s1 (single isomer, unassigned) [Example 45B1] was run?
The value was “A (“A” refers to AUC > 5)”.

CC(C)(C)CCCOc1ccn(-c2sc(NS(=O)(=O)c3ccccc3)nc2-c2ccccc2C(F)(F)F)n1 [Example 40, N-(5-(3-((4,4-Dimethylpentyl)oxy)-1H-pyrazol-1-yl)-4-(2-(trifluoromethyl)phenyl)thiazol-2-yl)benzenesulfonamide] was tested. Which “TECC AUC vs. DMSO @ 3 uM” value did it give?
The value was “A (“A” refers to AUC > 5)”.

Which “TECC AUC vs. DMSO @ 3 uM” value does the source give for Nc1cccc(S(=O)(=O)Nc2nc(-c3ccc(C(F)(F)F)cc3)c(-c3cc(F)cc(O[C@@H]4CCC(OC(F)(F)F)C4)c3)s2)c1 (single isomer, unassigned) [Example 43B] here?
Its value is “A (“A” refers to AUC > 5)”.

How did the “TECC AUC vs. DMSO @ 3 uM” value turn out when Cc1cccc(C(F)(F)F)c1-c1nc(NS(=O)(=O)c2cccc(N)n2)sc1-c1cc(F)cc(OCCC(C)(C)C)c1 [Example 312, 6-amino-N-[5-[3-(3,3-dimethylbutoxy)-5-fluorophenyl]-4-[2-methyl-6-(trifluoromethyl)phenyl]-1,3-thiazol-2-yl]pyridine-2-sulfonamide] was run?
The value was “A (“A” refers to AUC > 5)”.

How did the “TECC AUC vs. DMSO @ 3 uM” value turn out when O=S(=O)(Nc1nc(-c2ccccc2C(F)(F)F)c(-c2cccc([C@H]3CC[C@@H](OC(F)(F)F)C3)c2)s1)c1ccccc1 (single isomer, unassigned) [Example 44A1] was run?
The value was “B (“B” refers to AUC 2-5)”.

For Cc1cccc(C)c1-c1nc(NS(=O)(=O)c2ccc(F)c(N)c2)sc1-c1cc(F)cc(OCCC(C)(C)C)c1 [Example 42, 3-Amino-N-(5-(3-(3,3-dimethylbutoxy)-5-fluorophenyl)-4-(2,6-dimethylphenyl)thiazol-2-yl)-4-fluorobenzenesulfonamide], which “TECC AUC vs. DMSO @ 3 uM” value is on record?
Its value is “B (“B” refers to AUC 2-5)”.

With CNc1cccc(S(=O)(=O)Nc2nc(-c3ccccc3C(C)C)c(-c3cccc(OCCC(C)(C)C)c3)s2)c1 [Example 21, N-(5-(3-(3,3-Dimethylbutoxy)phenyl)-4-(2-isopropylphenyl)thiazol-2-yl)-3-(methylamino)benzenesulfonamide] as the compound, how does the “TECC AUC vs. DMSO @ 3 uM” value read?
The value was “A (“A” refers to AUC > 5)”.

How did the “TECC AUC vs. DMSO @ 3 uM” value turn out when Cc1cccc(C)c1-c1nc(NS(=O)(=O)c2cccc(NC3CC(C)(O)C3)c2)sc1-c1cccc(OCC(C)(C)C(F)(F)F)c1 (centres unmarked) [Example 13, N-(4-(2,6-Dimethylphenyl)-5-(3-(3,3,3-trifluoro-2,2-dimethylpropoxy)phenyl)thiazol-2-yl)-3-((3-hydroxy-3-methylcyclobutyl)amino)benzenesulfonamide] was run?
The value was “A (“A” refers to AUC > 5)”.

Which “TECC AUC vs. DMSO @ 3 uM” value does the source give for Cc1cccc(C)c1-c1nc(NS(=O)(=O)c2cccc(N)c2F)sc1-c1cc(F)cc(OCCC(C)(C)C)c1 [Example 25, 3-Amino-N-(5-(3-(3,3-dimethylbutoxy)-5-fluorophenyl)-4-(2,6-dimethylphenyl)thiazol-2-yl)-2-fluorobenzenesulfonamide] here?
The value was “A (“A” refers to AUC > 5)”.

How did the “TECC AUC vs. DMSO @ 3 uM” value turn out when Cc1cccc(C)c1-c1nc(NS(=O)(=O)c2ccsc2)sc1-c1cccc(OCC(C)(C)C)c1 [Example 41, N-(4-(2,6-Dimethylphenyl)-5-(3-(neopentyloxy)phenyl)thiazol-2-yl)thiophene-3-sulfonamide] was run?
The value was “A (“A” refers to AUC > 5)”.

With Cc1cccc(OC(C)C)c1-c1nc(NS(=O)(=O)c2ccnc(N)c2)sc1-c1cc(F)cc(OCCC(C)(C)C)c1 [Example 34, 2-Amino-N-(5-(3-(3,3-dimethylbutoxy)-5-fluorophenyl)-4-(2-isopropoxy-6-methylphenyl)thiazol-2-yl)pyridine-4-sulfonamide] as the compound, how does the “TECC AUC vs. DMSO @ 3 uM” value read?
Its value is “A (“A” refers to AUC > 5)”.

How did the “TECC AUC vs. DMSO @ 3 uM” value turn out when Cc1cccc(C)c1-c1nc(NS(=O)(=O)c2cccc(N)n2)sc1-c1cc(F)cc(OCCC(C)(C)C)c1 [Example 31, 6-Amino-N-(5-(3-(3,3-dimethylbutoxy)-5-fluorophenyl)-4-(2,6-dimethylphenyl)thiazol-2-yl)pyridine-2-sulfonamide] was run?
The value was “A (“A” refers to AUC > 5)”.

With CC(C)c1ccccc1-c1nc(NS(=O)(=O)c2cccc(N)n2)sc1-c1cccc(OCCC(C)(C)C)c1 [Example 30, 6-Amino-N-(5-(3-(3,3-Dimethylbutoxy)phenyl)-4-(2-isopropylphenyl)thiazol-2-yl)pyridine-2-sulfonamide] as the compound, how does the “TECC AUC vs. DMSO @ 3 uM” value read?
The value was “A (“A” refers to AUC > 5)”.

For Nc1cccc(S(=O)(=O)Nc2nc(-c3ccccc3C(F)(F)F)c(-c3cccc([C@@H]4CC[C@@H](OC(F)(F)F)C4)c3)s2)c1F [Example 47B2, 3-Amino-2-fluoro-N-(5-(3-((1R,3R)-3-(trifluoromethoxy)cyclopentyl)phenyl)-4-(2-(trifluoromethyl)phenyl)thiazol-2-yl)benzenesulfonamide], which “TECC AUC vs. DMSO @ 3 uM” value is on record?
The value was “C (“C” refers to AUC < 2)”.

With Nc1cccc(S(=O)(=O)Nc2nc(-c3ccccc3C(F)(F)F)c(-c3cccc([C@H]4CC[C@H](OC(F)(F)F)C4)c3)s2)c1F (single isomer, unassigned) [Example 47A2] as the compound, how does the “TECC AUC vs. DMSO @ 3 uM” value read?
The value was “C (“C” refers to AUC < 2)”.

With Cc1cccc(C)c1-c1nc(NS(=O)(=O)c2ccccc2)sc1N1C[C@H](OC(C)(C)C)C[C@H]1C [Example 402, N-[4-(2,6-dimethylphenyl)-5-[(2R,4R)-2-methyl-4-[(2-methylpropan-2-yl)oxy]pyrrolidin-1-yl]-1,3-thiazol-2-yl]benzenesulfonamide] as the compound, how does the “TECC AUC vs. DMSO @ 3 uM” value read?
Its value is “A (“A” refers to AUC > 5)”.

How did the “TECC AUC vs. DMSO @ 3 uM” value turn out when CC(C)(C)CCOc1cccc(-c2sc(NS(=O)(=O)c3cccc(NC(=O)C4CC4)c3)nc2-c2ccccc2C(F)(F)F)c1 [Example 19, N-(3-(N-(5-(3-(3,3-Dimethylbutoxy)phenyl)-4-(2-(trifluoromethyl)phenyl)thiazol-2-yl)sulfamoyl)phenyl)cyclopropanecarboxamide] was run?
Its value is “A (“A” refers to AUC > 5)”.

For CC(C)c1ccccc1-c1nc(NS(=O)(=O)c2cccc(N)c2F)sc1-c1cccc([C@H]2CC[C@@H](OC(F)(F)F)C2)c1 [Example 48A1, 3-Amino-2-fluoro-N-(4-(2-isopropylphenyl)-5-(3-((1S,3R)-3-(trifluoromethoxy)cyclopentyl)phenyl)thiazol-2-yl)benzenesulfonamide], which “TECC AUC vs. DMSO @ 3 uM” value is on record?
The value was “A (“A” refers to AUC > 5)”.

With Cc1cccc(C)c1-c1nc(NS(=O)(=O)c2ccnc(N)c2)sc1-c1cc(F)cc(OCCC(C)(C)C)c1 [Example 32, 2-Amino-N-(5-(3-(3,3-dimethylbutoxy)-5-fluorophenyl)-4-(2,6-dimethylphenyl)thiazol-2-yl)pyridine-4-sulfonamide] as the compound, how does the “TECC AUC vs. DMSO @ 3 uM” value read?
The value was “A (“A” refers to AUC > 5)”.

Which “TECC AUC vs. DMSO @ 3 uM” value does the source give for Cc1cccc(C)c1-c1nc(NS(=O)(=O)c2ccccc2)sc1-c1cc(F)cc(OCC(C)(C)C)c1 [Example 1, N-(4-(2,6-Dimethylphenyl)-5-(3-fluoro-5-(neopentyloxy)phenyl)thiazol-2-yl)benzenesulfonamide] here?
Its value is “A (“A” refers to AUC > 5)”.

For COC(=O)C1CCCC(Nc2cccc(S(=O)(=O)Nc3nc(-c4c(C)cccc4C)c(-c4cccc(OCCC(C)(C)C)c4)s3)n2)C1 (centres unmarked) [Example 435, methyl 3-[[6-[[5-[3-(3,3-dimethylbutoxy)phenyl]-4-(2,6-dimethylphenyl)-1,3-thiazol-2-yl]sulfamoyl]pyridin-2-yl]amino]cyclohexane-1-carboxylate], which “TECC AUC vs. DMSO @ 3 uM” value is on record?
Its value is “A (“A” refers to AUC > 5)”.

With Cc1nn(C)cc1S(=O)(=O)Nc1nc(-c2ccccc2C(F)(F)F)c(-c2cccc([C@H]3CC[C@H](OC(F)(F)F)C3)c2)s1 (single isomer, unassigned) [Example 45A2] as the compound, how does the “TECC AUC vs. DMSO @ 3 uM” value read?
Its value is “B (“B” refers to AUC 2-5)”.
